This is an account of results in patent US20260001876A1, “Compounds and Their Use as PDE4 Activators” (Mironid Limited, priority 2022, published 2026).

Structures are written as SMILES.

The first assay has as its system m-IMCD3 cells. Put plainly: Inhibition of PGE2-stimulated in vitro cyst formation in m-IMCD3 cells (3D culture). Type of assay: cell-based. The settings on record: Mus musculus, mIMCD3, 144 h; 3 μM; mean cyst area; 100% for (DMSO + PGE2) and 0% for DMSO control; 6 days of culture; read-out: % Cyst area* after incubation with 3 μM test compound. The protocol: HEK 293 and MDCK cells (Public Health England, Cell Culture Collections) were maintained in Dulbecco's Modified Eagle's Medium (DMEM) supplemented with 10% (v/v) fetal bovine serum (FBS) (Seralab), 2 mM L-glutamine and 100 U/mL penicillin streptomycin cocktail (ThermoFisher); termed complete media. Clonal HEK 293 cell lines were maintained in complete media supplemented with 0.6 mg/ml G418 (Enzo Life Sciences). Mouse inner medullary collecting duct (m-IMCD3) cells [American Type Culture Collection (ATCC)] were maintained in media consisting of DMEM/Hams F-12 50/50 Mix (DMEM F12; Corning) supplemented with penicillin streptomycin cocktail (100 U/mL) and FBS (10% v/v) (DMEM F12-10% FBS).
Experiment 3: Inhibition of In Vitro Cyst Formation in m-IMCD3 Cells Treated with PDE4 Long Form Activators
The mouse Inner Medullary Collecting Duct cell line (m-IMCD3) spontaneously forms cystic spheroids in 3D culture with a Type 1 collagen/Matrigel extracellular matrix. This process can be stimulated with agents which raise intracellular cAMP and is used as an in vitro model for the formation of cystic structures in the kidneys of patients with ADPKD.
Rat Collagen I (Fisher Scientific) is prepared on ice by neutralising with 1M NaOH and diluting with a 2× volume of DMEM/F12+10% FBS. This is mixed 1:1.1 with ice cold Matrigel (Corning) for coating plates (coating mix), and 1:0.93 with Matrigel for cell plating (plating mix).
The assay is conducted in the wells of a 96-well plate culture dish using a total volume of 130 μL of collagen/Matrigel/DMEM F12-10% FBS suspension in growth media for each matrix plug per individual well. Initially, 30 μL of collagen/Matrigel/DMEM F12-10% FBS (coating mix) is added into the well of a 96 well plate and the collagen is set to a gel by incubating at 37° C. for at least 15 minutes. A second layer of 100 μL collagen/Matrigel suspension (plating mix) containing m-IMCD3 cells (2.75×10^6 m-IMCD3 cells per 96-well plate) is layered over the coating mix and the collagen/Matrigel/cell mix again set to a gel by incubating at 37° C. Cell cultures are maintained at 37° C. in an atmosphere of 5% CO2, 95% air.
Between 18 and 24 h after plating, test compound(s) as DMSO stock solutions [0.1% (v/v) final DMSO concentration] and PGE2 (100 nM final concentration) in DMEM F12-10% FBS are added in quadruplicate wells per condition. Media, together with the test compound and PGE2 are replenished after 2 or 3 days. After 6 days of culture z stack images of the wells are captured using the Nikon Eclipse Ti2-E microscope. Nikon General Analysis software is used to measure the following parameters in each well: the mean cyst area, the number of cysts, and the total cyst area.
PDE4 long form activators inhibited in vitro cyst formation in m-IMCD3 cells. Data are shown in Table 4 as mean cyst area (%), compared to 100% for (DMSO+PGE2) and 0% for DMSO control.
For the compound `O=C(c1ccccc1)N1CCc2nc(N3C4CCC3CNC4)ccc2C1` [Example 120, (2-(3,8-diazabicyclo[3.2.1]octan-8-yl)-7,8-dihydro-1,6-naphthyridin-6(5H)-yl)(phenyl)methanone], the activity at 3 µM was 1%.
On the same count and under the same terms, next, `O=C(c1ccc(F)cc1)N1CCc2nc(N3C4CCC3CNC4)ccc2C1` [Example 123, (2-(3,8-diazabicyclo[3.2.1]octan-8-yl)-7,8-dihydro-1,6-naphthyridin-6(5H)-yl)(4-fluorophenyl)methanone]: -7%; `O=C([C@H](O)C1CCCC1)N1CCc2nc(N3C4CCC3CNC4)ccc2C1` [Example 124, (2R)-1-(2-(3,8-diazabicyclo[3.2.1]octan-8-yl)-7,8-dihydro-1,6-naphthyridin-6(5H)-yl)-2-cyclopentyl-2-hydroxyethan-1-one]: 0%; `O=C(OC1CCCC1)N1CCc2nc(N3C4CCC3CNC4)ccc2C1` [Example 125, cyclopentyl 2-(3,8-diazabicyclo[3.2.1]octan-8-yl)-7,8-dihydro-1,6-naphthyridine-6(5H)-carboxylate]: -3%.
With `CC(C)OC(=O)N1CCc2nc(N3C4CCC3CNC4)ccc2C1` [Example 126, isopropyl 2-(3,8-diazabicyclo[3.2.1]octan-8-yl)-7,8-dihydro-1,6-naphthyridine-6(5H)-carboxylate], the activity at 3 µM came out at 14%.
Turning to `O=C(OCc1ccccc1)N1CCc2nc(N3C4CCC3CNC4)ccc2C1` [Example 127, benzyl 2-(3,8-diazabicyclo[3.2.1]octan-8-yl)-7,8-dihydro-1,6-naphthyridine-6(5H)-carboxylate], the activity at 3 µM came to 3%.
Consider `CC(C)[C@H](C)C(=O)N1Cc2ccc(N3C4CCC3CNC4)nc2C1` [Example 128, (2S)-1-(2-(3,8-diazabicyclo[3.2.1]octan-8-yl)-5,7-dihydro-6H-pyrrolo[3,4-b]pyridin-6-yl)-2,3-dimethylbutan-1-one], for which the activity at 3 µM worked out at 3%.

Staying with this assay, now noted: Mus musculus, mIMCD3, 144 h; 10 μM; mean cyst area; 100% for (DMSO + PGE2) and 0% for DMSO control; 6 days of culture; read-out: % Cyst area* after incubation with 10 μM test compound.
For `O=C(CC1CCCC1)N1CCc2nc(N3CCN[C@@H](CO)C3)ccc2C1` (single isomer, unassigned) [Example 131], the activity at 10 µM was -4%.
The same measure, in the same setting: the result for `O=C(CC1CCCC1)N1CCc2nc(N3CCN[C@H](CO)C3)ccc2C1` (single isomer, unassigned) [Example 132] reads -4%; that for `O=C(CC1CCCC1)N1CCc2nc(N3C4CCC3CNC4)ccc2C1` [Example 39, 1-(2-(3,8-diazabicyclo[3.2.1]octan-8-yl)-7,8-dihydro-1,6-naphthyridin-6(5H)-yl)-2-cyclopentylethan-1-one], 5%; that for `O=C(COc1ccccc1)N1CCc2nc(N3C4CCC3CNC4)ccc2C1` [Example 41, 1-(2-(3,8-diazabicyclo[3.2.1]octan-8-yl)-7,8-dihydro-1,6-naphthyridin-6(5H)-yl)-2-phenoxyethan-1-one], 4%.
Still for that read-out and setting: the result for `CC(C)CC(=O)N1CCc2nc(N3C4CCC3CNC4)ccc2C1` [Example 43, 1-(2-(3,8-diazabicyclo[3.2.1]octan-8-yl)-7,8-dihydro-1,6-naphthyridin-6(5H)-yl)-3-methylbutan-1-one] reads -4%; that for `CC(C)C(C)C(=O)N1CCc2nc(N3C4CCC3CNC4)ccc2C1` (centres unmarked) [Example 44, 1-(2-(3,8-diazabicyclo[3.2.1]octan-8-yl)-7,8-dihydro-1,6-naphthyridin-6(5H)-yl)-2,3-dimethylbutan-1-one], -2%.
For `O=C(C1CCCC1)N1CCc2nc(N3C4CCC3CNC4)ccc2C1` [Example 47, (2-(3,8-diazabicyclo[3.2.1]octan-8-yl)-7,8-dihydro-1,6-naphthyridin-6(5H)-yl)(cyclopentyl)methanone], the activity at 10 µM was determined as 5%.
On the same count and under the same terms, next, `O=C(NC1CCC(F)(F)CC1)N1CCc2nc(N3C4CCC3CNC4)ccc2C1` [Example 59, 2-(3,8-diazabicyclo[3.2.1]octan-8-yl)-N-(4,4-difluorocyclohexyl)-7,8-dihydro-1,6-naphthyridine-6(5H)-carboxamide]: -4%; `O=C(N1CCCC1)N1CCc2nc(N3C4CCC3CNC4)ccc2C1` [Example 61, (2-(3,8-diazabicyclo[3.2.1]octan-8-yl)-7,8-dihydro-1,6-naphthyridin-6(5H)-yl)(pyrrolidin-1-yl)methanone]: 3%; `CN(C(=O)N1CCc2nc(N3C4CCC3CNC4)ccc2C1)C1CCCC1` [Example 63, 2-(3,8-diazabicyclo[3.2.1]octan-8-yl)-N-cyclopentyl-N-methyl-7,8-dihydro-1,6-naphthyridine-6(5H)-carboxamide]: 2%.
As for `CCN(C(=O)N1CCc2nc(N3C4CCC3CNC4)ccc2C1)C1CCCC1` [Example 64, 2-(3,8-diazabicyclo[3.2.1]octan-8-yl)-N-cyclopentyl-N-ethyl-7,8-dihydro-1,6-naphthyridine-6(5H)-carboxamide], the activity at 10 µM was 0%.
The same measure, in the same setting: the result for `O=C(CC1CCC(F)(F)CC1)N1Cc2ccc(N3C4CCC3CNC4)nc2C1` [Example 87, 1-(2-(3,8-diazabicyclo[3.2.1]octan-8-yl)-5,7-dihydro-6H-pyrrolo[3,4-b]pyridin-6-yl)-2-(4,4-difluorocyclohexyl)ethan-1-one] reads 0%.
Same read-out and setting: the result for `O=C(NC1CCC(F)(F)CC1)N1Cc2ccc(N3C4CCC3CNC4)nc2C1` [Example 89, 2-(3,8-diazabicyclo[3.2.1]octan-8-yl)-N-(4,4-difluorocyclohexyl)-5,7-dihydro-6H-pyrrolo[3,4-b]pyridine-6-carboxamide] reads 2%.
With `CN1CC2CCC(C1)N2c1ccc2c(n1)CN(C(=O)CC1CCC(F)(F)CC1)C2` [Example 93, 2-(4,4-difluorocyclohexyl)-1-(2-(3-methyl-3,8-diazabicyclo[3.2.1]octan-8-yl)-5,7-dihydro-6H-pyrrolo[3,4-b]pyridin-6-yl)ethan-1-one], the activity at 10 µM is -3%.
The same measure, in the same setting: the result for `O=C(N1CCCC1)N1Cc2ccc(N3C4CCC3CNC4)nc2C1` [Example 95, (2-(3,8-diazabicyclo[3.2.1]octan-8-yl)-5,7-dihydro-6H-pyrrolo[3,4-b]pyridin-6-yl)(pyrrolidin-1-yl)methanone] reads -2%.
Take `CCN(CC)C(=O)N1Cc2ccc(N3C4CCC3CNC4)nc2C1` [Example 96, 2-(3,8-diazabicyclo[3.2.1]octan-8-yl)-N,N-diethyl-5,7-dihydro-6H-pyrrolo[3,4-b]pyridine-6-carboxamide]: the activity at 10 µM was -4%.
Regarding `CN1CC2CCC(C1)N2c1ccc2c(n1)CCN(C(=O)CC1CCC(F)(F)CC1)C2` [Example 106, 2-(4,4-difluorocyclohexyl)-1-(2-(3-methyl-3,8-diazabicyclo[3.2.1]octan-8-yl)-7,8-dihydro-1,6-naphthyridin-6(5H)-yl)ethan-1-one], the activity at 10 µM worked out at 1%.
On the same count and under the same terms, the result for `CC1(CC(=O)N2CCc3nc(N4C5CCC4CNC5)ccc3C2)CCCC1` [Example 119, 1-(2-(3,8-diazabicyclo[3.2.1]octan-8-yl)-7,8-dihydro-1,6-naphthyridin-6(5H)-yl)-2-(1-methylcyclopentyl)ethan-1-one] reads -4%.
Still for that read-out and setting: the result for `O=C(N1Cc2ccc(N3C4CCC3CNC4)nc2C1)C(F)(F)c1ccccc1` [Example 130, 1-(2-(3,8-diazabicyclo[3.2.1]octan-8-yl)-5,7-dihydro-6H-pyrrolo[3,4-b]pyridin-6-yl)-2,2-difluoro-2-phenylethan-1-one] reads -10%.
